Laboratory results as given in publication PMC7756582, “Prodrugs of γ‐Alkyl‐Modified Nucleoside Triphosphates: Improved Inhibition of HIV Reverse Transcriptase” (Angewandte Chemie (International Ed. in English), 2020).

Test: Enzyme-catalyzed hydrolysis in human CD4+ T-lymphocyte CEM cell extracts
Assay type: in vitro ADME
Settings: for half-life at 0.86 mM: CEM/0 cell extracts (CD4+ T-lymphocytes), human CD4+ T-lymphocyte CEM cell extracts, 37 °C, read-out: CEM/0 cell extracts t 1/2 (converted)
Protocol: The stability of prodrugs 6 and the γ‐alkyl‐NTPs 7 was further investigated in human CD4 ^+ T‐lymphocyte CEM cell extracts. […] Thus, an enzymatic cleavage reaction took place. Half‐lives as low as 0.4 h (6 az) to 5.2 h (6 dz) were determined. […] This is in accordance to our previous results for the DiPPro‐[ ^17 , ^18 ] or the TriPPPro‐compounds 5.[ ^22 , ^23 ] In all cases we observed the predominant formation of γ‐alkyl‐d4TTPs 7 and d4TDP 2 d in very low concentration (Figure 2 B) but no NTP formation was detected, in contrast to the studies using the previously described TriPPPro compounds 5.[ ^23 , ^24 ] However, the difference to the compounds bearing long lipophilic acyl groups was not very pronounced (2‐ to 3‐fold). In the case of γ‐(AB‐C4,alkyl‐C18)‐d4TTP 6 cz, γ‐C18‐d4TTP 7 z was detected as the main product. After 8 h incubation, the ratio of γ‐C18‐d4TTP 7 z and d4TDP 2 d was 5:1. This was in sharp contrast to the studies performed with TriPPPro compounds 5.[ ^23 , ^24 ] There, it was almost impossible to detect significant concentrations of d4TTP due to its fast dephosphorylation to form first d4TDP and finally d4TMP 2 m. […] The formation of thymine or d4TTP 2 t from γ‐C18‐d4TTP 7 z was not detected (Supporting Information, Figure SI2).
ProLab 300 from Schott Co.. Thermomixer: Eppendorf Thermomixer 5436 and CellMedia Thermoschüttler basic were used. […]
Enzyme-catalyzed hydrolysis of γ-(AB,alkyl)-d4TTPs 6, γ-alkyl-d4TTPs 7,15 and TriPPPros 5 in CEM cell extracts:
18 µL of the appropriate 50 mM DMSO-d6 stock solution was diluted to 6.0 mM hydrolysis solution by addition of 132.0 µL DMSO-d6.
7-10 different samples including 10 µL water and 10 µL hydrolysis solution were prepared in 2 mL Eppendorf® vials. The reaction was started by addition of 50 µL human CEM cell extract and the mixture was incubated at 37 °C for different time periods. The reactions were stopped by addition of 150 μL MeOH. The solution was kept on ice for 5 min followed by centrifugation for 5 min (13000 rpm).
The supernatants were filtered (Chromafil® RC-20/15 MS, 0.2 μm) and stored in liquid nitrogen. When testing, the samples were defrosted and injection volume with 80 μL was used for HPLC analysis. The calculation of t1/2 was performed analogously to that for the chemical hydrolysis studies.
Preparation of cell extracts: Human CD4+ T-lymphocyte CEM cells were grown in RPMI-1640-based cell culture medium to a final density of ~3·10^6 cells/ml. Then, cells were centrifuged for 10 min at 1,250 rpm at 4 °C, washed twice with cold PBS, and the pellet was re-suspended at 10^8 cells/ml and sonicated (Hielscher Ultrasound Techn., 100% amplitude, 3·times for 10 sec) to destroy cell integrity. The resulting cell suspension was then centrifuged at 10,000 rpm to remove cell debris, and the supernatant divided in aliquots before being frozen at -80 C and used.

Row | SMILES | stability in cell extracts (in words) (CEM cell extracts, incubation up to 30 h) | half-life at 0.86 mM
1 | Cc1cn(C2C=CC(COP(=O)(O)OP(=O)(O)OP(=O)(O)O)O2)c(=O)[nH]c1=O (centres unmarked) [2 t, d4TTP, reference compound] | rapidly enzymatically dephosphorylated | 
2 | CCCCCCCCCCCCCCCCCCOP(=O)(OCc1ccc(OC(=O)CCCC)cc1)OP(=O)(O)OP(=O)(O)OCC1C=CC(n2cc(C)c(=O)[nH]c2=O)O1 (centres unmarked) [6 cz, γ‐(AB‐C4,alkyl‐C18)‐d4TTP] |  | 4.8 h
3 | CCCCCCCCCCCCCCCC(=O)Oc1ccc(COP(=O)(OCCCC)OP(=O)(O)OP(=O)(O)OCC2C=CC(n3cc(C)c(=O)[nH]c3=O)O2)cc1 (centres unmarked) [6 ew, γ‐(AB‐C15,alkyl‐C4)‐d4TTP] |  | 2.2 h
4 | CCCCOP(=O)(O)OP(=O)(O)OP(=O)(O)OCC1C=CC(n2cc(C)c(=O)[nH]c2=O)O1 (centres unmarked) [7 w, γ‐C4‐d4TTP] |  | > 30 h
5 | CCCCCCCCCCCCCCCCCCOP(=O)(O)OP(=O)(O)OP(=O)(O)OCC1C=CC(n2cc(C)c(=O)[nH]c2=O)O1 (centres unmarked) [7 z, γ‐C18‐d4TTP] |  | > 30 h
